Measured values from ChEMBL document CHEMBL1152563, “Identification of new agonists of urotensin-II from a cyclic peptide library” (Bioorg Med Chem, 2009).
pEC50: −log10 of the molar value. Peptide text beside a SMILES is read from it.

Legend:
[1] = biological target: T1, Urotensin-2 receptor (Homo sapiens) (UniProt Q9UKP6); assay: Agonist activity at human GPR14 expressed in HEK293 cells by calcium mobilization assay relative to urotensin 2; type: functional, cell-based
T1 sequence (whole entry): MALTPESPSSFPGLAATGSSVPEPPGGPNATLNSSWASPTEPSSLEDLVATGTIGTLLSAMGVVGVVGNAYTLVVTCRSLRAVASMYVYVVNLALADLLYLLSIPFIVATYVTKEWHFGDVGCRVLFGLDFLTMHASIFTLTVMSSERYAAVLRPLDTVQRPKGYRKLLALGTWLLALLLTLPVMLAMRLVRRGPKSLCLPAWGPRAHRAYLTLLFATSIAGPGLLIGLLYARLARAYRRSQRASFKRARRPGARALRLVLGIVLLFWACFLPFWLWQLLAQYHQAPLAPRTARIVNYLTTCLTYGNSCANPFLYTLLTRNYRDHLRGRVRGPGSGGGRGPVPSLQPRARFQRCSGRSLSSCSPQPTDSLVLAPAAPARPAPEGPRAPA

Urotensin-2 receptor = biological target: T2, Urotensin-2 receptor (Homo sapiens, UniProt Q9UKP6); assay: Agonist activity at human GPR14 expressed in HEK293 cells by calcium mobilization assay; type: functional, cell-based
T2 sequence (Q9UKP6 whole entry): T1 sequence (whole entry)

SMILES | Emax [1] | pEC50 (Urotensin-2 receptor)
NCCCC[C@@H]1NC(=O)[C@H](Cc2c[nH]c3ccccc23)NC(=O)[C@H](Cc2ccccc2)NC(=O)CNC(=O)[C@@H]2CCCN2C(=O)[C@H](Cc2ccccc2)NC1=O (cyclo(FPGFWK)) | 101% | 7.88
NCCCC[C@@H]1NC(=O)[C@H](Cc2c[nH]c3ccccc23)NC(=O)[C@H](Cc2ccc(O)cc2)NC(=O)CNC(=O)[C@@H]2CCCN2C(=O)[C@H](Cc2ccccc2)NC1=O (cyclo(FPGYWK)) | 102% | 7.12
NCCCC[C@@H]1NC(=O)[C@H](Cc2c[nH]c3ccccc23)NC(=O)[C@H](Cc2ccccc2)NC(=O)CNC(=O)[C@@H]2CCCN2C(=O)[C@H](Cc2c[nH]c3ccccc23)NC1=O (cyclo(FWKWPG)) | 92% | 7.69
NCCCC[C@@H]1NC(=O)[C@H](Cc2c[nH]c3ccccc23)NC(=O)[C@H](CO)NC(=O)CNC(=O)[C@@H]2CCCN2C(=O)[C@H](Cc2c[nH]c3ccccc23)NC1=O (cyclo(GSWKWP)) | 100% | 7.78

Stronger by pEC50 (Urotensin-2 receptor), values ahead:

Emax [1] | pEC50 (Urotensin-2 receptor) | SMILES
86% | 7.90 | NCCCC[C@@H]1NC(=O)[C@H](Cc2c[nH]c3ccccc23)NC(=O)[C@H](Cc2ccc(O)cc2)NC(=O)CNC(=O)[C@@H]2CCCN2C(=O)[C@H](Cc2ccc(O)cc2)NC1=O (cyclo(GYWKYP))
96% | 8.00 | NCCCC[C@@H]1NC(=O)[C@H](Cc2c[nH]c3ccccc23)NC(=O)[C@H](CO)NC(=O)CNC(=O)[C@@H]2CCCN2C(=O)[C@H](Cc2ccccc2)NC1=O (cyclo(FPGSWK))
108% | 8.07 | NCCCC[C@@H]1NC(=O)[C@H](Cc2c[nH]c3ccccc23)NC(=O)[C@H](CO)NC(=O)CNC(=O)[C@@H]2CCCN2C(=O)[C@H](Cc2ccc(O)cc2)NC1=O (cyclo(GSWKYP))
98% | 8.16 | NCCCC[C@@H]1NC(=O)[C@H](Cc2c[nH]c3ccccc23)NC(=O)[C@H](Cc2ccccc2)NC(=O)CNC(=O)[C@@H]2CCCN2C(=O)[C@H](Cc2ccc(O)cc2)NC1=O (cyclo(FWKYPG))
